# Measurements: ChEMBL document CHEMBL6078637, “Cyclic Diguanylate G-Quadruplex Inducer-Quorum Sensing Inhibitor Hybrids as Bifunctional Anti-biofilm and Anti-virulence Agents Against Pseudomonas aeruginosa” (J Med Chem, 2024)
# Active and inactive are the calls of the source. The calls are words filed in the database; no cut-off is given here.
# Assays:
# Pseudomonas aeruginosa [1] = experiment: Antibacterial activity against Pseudomonas aeruginosa PAO1 incubated for 24 hrs by absorbance based assay; assay type: functional
# [2] = Inhibition of quorum sensing system in Pseudomonas aeruginosa PAO1 harboring mini-ctx-lasB-lacZ at 10 uM measured after 16 hrs by ONPG test relative to control
# [3] = Hemolytic activity in rabbit erythrocytes assessed as damage in cell membrane integrity at 100 uM incubated for 4 hrs by absorbance based assay; assay type: toxicity, Oryctolagus cuniculus; conditions: erythrocyte
# Pseudomonas aeruginosa [4] = experiment: Inhibition of swimming motility of Pseudomonas aeruginosa PAO1 at 10 uM incubated overnight relative to control; assay type: functional
# Pseudomonas aeruginosa [5] = experiment: Antibiofilm activity against Pseudomonas aeruginosa PAO1 harboring wspF mutant assessed as inhibition rate at 10 uM incubated for 24 hrs by absorbance based assay relative to control; assay type: functional
# Pseudomonas aeruginosa [6] = experiment: Inhibition of beta-galactosidase in Pseudomonas aeruginosa PAO1 harboring mini-ctx-lasB-lacZ incubated for 6 hrs by ONPG test; conditions: dose <= 10.0 µM
# Pseudomonas aeruginosa [7] = experiment: Synergistic inhibition of bacterial virulence of hyper-biofilm phenotype Pseudomonas aeruginosa PAO1 harboring wspF mutant upto 10 uM incubated for 36 hrs in presence of tetracycline; assay type: functional, organism-based
# Pseudomonas aeruginosa [8] = experiment: Inhibition of beta-galactosidase in Pseudomonas aeruginosa PAO1 harboring mini-ctx-rhlA-lacZ at 10 uM incubated for 6 hrs by ONPG test relative to control
# Pseudomonas aeruginosa [9] = experiment: Antibiofilm activity against Pseudomonas aeruginosa PAO1 harboring wspF mutant assessed as inhibition rate at 1.25 uM incubated for 24 hrs by absorbance based assay relative to control; assay type: functional
# [10] = Toxicity in Caenorhabditis elegans infected with hyper-biofilm phenotype Pseudomonas aeruginosa PAO1 harboring wspF mutant assessed as nematode death at 10 uM incubated for 48 hrs in presence of tetracycline
# [11] = Toxicity in Caenorhabditis elegans infected with Pseudomonas aeruginosa PAO1 assessed as nematode survival at 10 uM incubated for 48 hrs in presence of tetracycline
# Pseudomonas aeruginosa [12] = experiment: Synergistic inhibition of bacterial virulence of Pseudomonas aeruginosa PAO1 infected in Caenorhabditis elegans upto 10 uM incubated for 36 hrs in presence of tetracycline; assay type: functional, organism-based
# Pseudomonas aeruginosa [13] = experiment: Antivirulence activity against Pseudomonas aeruginosa PAO1 assessed as reduction in elastase level at 10 uM incubated for 24 hrs by elastin-Congo red staining based analysis relative to control; assay type: functional; set-up: scale not given: the % may be the effect or the level left
# Pseudomonas aeruginosa [14] = experiment: Antivirulence activity against Pseudomonas aeruginosa PAO1 assessed as reduction in rhamnolipid level at 10 uM incubated for 24 hrs by orcinol based analysis; assay type: functional, organism-based
# Pseudomonas aeruginosa [15] = experiment: Synergistic inhibition of bacterial virulence of hyper-biofilm phenotype Pseudomonas aeruginosa PAO1 harboring wspF mutant upto 10 uM incubated for 36 hrs in presence of TOB; assay type: functional, organism-based
# [16] = Toxicity in Caenorhabditis elegans assessed as nematode survival upto 100 uM incubated for 96 hrs
# DNA [17] = experiment: Binding affinity to pBR322 DNA (unknown origin) assessed as DNA migration at 50 uM preincubated for 10 mins followed by Topo I addition measured after 1 hr by TO dye based PAGE analysis; assay type: nucleic-acid assay; conditions: time 70.0 min
# Pseudomonas aeruginosa [18] = experiment: Inhibition of twitching motility of Pseudomonas aeruginosa PAO1 at 10 uM incubated overnight by crystal voilet staining based analysis; assay type: functional, organism-based
# Pseudomonas aeruginosa [19] = experiment: Inhibition of beta-galactosidase in Pseudomonas aeruginosa PAO1 harboring mini-ctx-lacZ at 10 uM incubated for 6 hrs by ONPG test relative to control
# Pseudomonas aeruginosa [20] = experiment: Antivirulence activity against Pseudomonas aeruginosa PAO1 assessed as reduction in elastase level incubated for 24 hrs by elastin-Congo red staining based analysis; assay type: functional, organism-based; conditions: dose <= 10.0 µM
# [21] = Toxicity in Caenorhabditis elegans infected with Pseudomonas aeruginosa PAO1 assessed as nematode survival at 10 uM incubated for 48 hrs
# Pseudomonas aeruginosa [22] = experiment: Inhibition of twitching motility of Pseudomonas aeruginosa PAO1 incubated overnight by crystal voilet staining based analysis; assay type: functional, organism-based; conditions: dose <= 10.0 µM
# Pseudomonas aeruginosa [23] = experiment: Inhibition of beta-galactosidase in Pseudomonas aeruginosa PAO1 harboring mini-ctx-lasB-lacZ at 10 uM incubated for 6 hrs by ONPG test relative to control
# Pseudomonas aeruginosa [24] = experiment: Antivirulence activity against Pseudomonas aeruginosa PAO1 assessed as reduction in rhamnolipid level incubated for 24 hrs by orcinol based analysis; assay type: functional, organism-based; conditions: dose <= 10.0 µM
# Pseudomonas aeruginosa [25] = experiment: Inhibition of swimming motility of Pseudomonas aeruginosa PAO1 incubated overnight; assay type: functional, organism-based; conditions: dose <= 10.0 µM
# Pseudomonas aeruginosa [26] = experiment: Antivirulence activity against Pseudomonas aeruginosa PAO1 assessed as reduction in pyocyanin level incubated for 24 hrs by absorbance based assay; assay type: functional, organism-based; conditions: dose <= 10.0 µM
# Pseudomonas aeruginosa [27] = experiment: Antivirulence activity against Pseudomonas aeruginosa PAO1 assessed as reduction in hemolysin level at 10 uM preincubated for 24 hrs followed by addition of erythrocytes measured after 30 mins by absorbance based analysis relative to control; assay type: functional; set-up: scale not given: the % may be the effect or the level left
# DNA [28] = experiment: Binding affinity to pBR322 DNA (unknown origin) assessed as DNA embedding toxicity at 50 uM preincubated for 10 mins followed by Topo I addition measured after 1 hr by TO dye based PAGE analysis; assay type: nucleic-acid assay; conditions: time 70.0 min
# Pseudomonas aeruginosa [29] = experiment: Synergistic antibacterial activity against Pseudomonas aeruginosa PAO1 assessed as bacterial growth inhibition at 20 uM incubated for 24 hrs in presence of tetracycline by CFU counting method; assay type: functional, organism-based
# Pseudomonas aeruginosa [30] = experiment: Inhibition of swarming motility of Pseudomonas aeruginosa PAO1 at 10 uM incubated overnight; assay type: functional, organism-based
# [31] = Toxicity in Caenorhabditis elegans infected with Pseudomonas aeruginosa PAO1 assessed as reduction in nematode mortality rate at 10 uM incubated for 48 hrs in presence of TOB; set-up: scale not given: the % may be the effect or the level left
# [32] = Toxicity in Caenorhabditis elegans infected with hyper-biofilm phenotype Pseudomonas aeruginosa PAO1 harboring wspF mutant assessed as nematode death at 10 uM incubated for 48 hrs in presence of TOB
# Pseudomonas aeruginosa [33] = experiment: Inhibition of swarming motility of Pseudomonas aeruginosa PAO1 incubated overnight; assay type: functional, organism-based; conditions: dose <= 10.0 µM
# Pseudomonas aeruginosa [34] = experiment: Inhibition of beta-galactosidase in Pseudomonas aeruginosa PAO1 harboring mini-ctx-pqsA-lacZ incubated for 6 hrs by ONPG test; conditions: dose <= 10.0 µM
# Pseudomonas aeruginosa [35] = experiment: Inhibition of beta-galactosidase in Pseudomonas aeruginosa PAO1 harboring mini-ctx-pqsA-lacZ at 10 uM incubated for 6 hrs by ONPG test relative to control
# Pseudomonas aeruginosa [36] = experiment: Antibiofilm activity against Pseudomonas aeruginosa PAO1 harboring wspF mutant incubated for 24 hrs by absorbance based assay; assay type: functional, organism-based
# Vero = experiment: Cytotoxicity against African green monkey Vero cells at 12.5 uM incubated for 24 hrs by MTT assay; assay type: toxicity, cell-based; conditions: chlorocebus sabaeus
# Pseudomonas aeruginosa [37] = experiment: Synergistic inhibition of bacterial virulence of Pseudomonas aeruginosa PAO1 infected in Caenorhabditis elegans upto 10 uM incubated for 36 hrs in presence of TOB; assay type: functional, organism-based
smiles,measurement,setting,value
C[n+]1c(/C=C/c2cscn2)ccc2ccccc21,MIC,Pseudomonas aeruginosa [1],> 128 µM
same,inhibition,[2],4.55%
Cc1cc(=O)c(O)c(/C=C/c2sc3ccccc3[n+]2C)o1,MIC,Pseudomonas aeruginosa [1],> 128 µM
same,inhibition,[2],7.78%
Cc1cc(=O)c(O)c(/C=C/c2ccc3ccccc3[n+]2C)o1,MIC,Pseudomonas aeruginosa [1],> 128 µM
same,inhibition,[2],4.86%
C[n+]1c(/C=C/c2c[nH]c3ccc(O)cc23)ccc2ccccc21,MIC,Pseudomonas aeruginosa [1],> 128 µM
same,inhibition,[2],7.32%
C[n+]1c(/C=C/c2c[nH]c3ccc(F)cc23)ccc2ccccc21.[I-],Activity,[3],Non-toxic
same,inhibition at 10 µM,Pseudomonas aeruginosa [4],22.4%
same,inhibition at 10 µM,Pseudomonas aeruginosa [5],~40%
same,inhibition,Pseudomonas aeruginosa [6],Dose-dependent-effect
same,Activity,Pseudomonas aeruginosa [7],Active
same,inhibition,Pseudomonas aeruginosa [8],10%
same,inhibition at 1.25 µM,Pseudomonas aeruginosa [9],~21%
same,Activity,[10],Non-toxic
same,Survival,[11],86.3%
same,Activity,Pseudomonas aeruginosa [12],Active
same,MIC,Pseudomonas aeruginosa [1],> 128 µM
same,Activity,Pseudomonas aeruginosa [13],48.51%
same,Activity,Pseudomonas aeruginosa [14],Active; Exhibited Relatively Modest Activity
same,Activity,Pseudomonas aeruginosa [15],Active
same,Activity,[16],Non-toxic
same,Activity,DNA [17],Not toxic
same,inhibition,Pseudomonas aeruginosa [18],Active; Exhibited Only A Modest Impact
same,inhibition,Pseudomonas aeruginosa [19],8.03%
same,Activity,Pseudomonas aeruginosa [20],Dose-dependent-effect
same,Activity,[21],Toxic
same,inhibition,Pseudomonas aeruginosa [22],Dose-dependent-effect
same,inhibition,Pseudomonas aeruginosa [23],30%
same,Activity,Pseudomonas aeruginosa [24],Dose-dependent-effect
same,inhibition,Pseudomonas aeruginosa [25],Dose-dependent-effect
same,Activity,Pseudomonas aeruginosa [26],Dose-dependent-effect
same,Activity,Pseudomonas aeruginosa [27],51.3%
same,Activity,DNA [28],Not toxic
same,Activity,Pseudomonas aeruginosa [29],Active
same,inhibition,Pseudomonas aeruginosa [30],Active; Inhibitory Effect Was Comparable To Qs Deficient Pao1 Double Mutant Lasi/Rhli
same,Activity,[31],~ 50%
same,Activity,[32],Non-toxic
same,inhibition,Pseudomonas aeruginosa [33],Dose-dependent-effect
same,inhibition,Pseudomonas aeruginosa [34],Dose-dependent-effect
same,inhibition,Pseudomonas aeruginosa [35],30%
same,inhibition,[2],40.3%
same,inhibition,Pseudomonas aeruginosa [36],Dose-dependent-effect
same,IC50,"Pseudomonas aeruginosa [36]; PAO1, 24 h",23.4 µM
same,Activity,Vero,Non-toxic
same,Activity,Pseudomonas aeruginosa [37],Active
C[n+]1c(/C=C/c2cccc3c2CCO3)ccc2ccccc21,MIC,Pseudomonas aeruginosa [1],> 128 µM
same,inhibition,[2],9.4%
C[n+]1c(/C=C/c2cscn2)sc2ccccc21,MIC,Pseudomonas aeruginosa [1],> 128 µM
same,inhibition,[2],3.65%
C[n+]1c(/C=C/c2ccc3ccc(=O)oc3c2)sc2ccccc21,MIC,Pseudomonas aeruginosa [1],> 128 µM
same,inhibition,[2],2.42%
COc1ccc2c(/C=C/c3ccc4ccccc4[n+]3C)c[nH]c2c1,inhibition at 1.25 µM,Pseudomonas aeruginosa [9],~21%
same,MIC,Pseudomonas aeruginosa [1],> 128 µM
same,inhibition,[2],17.9%
C[n+]1c(/C=C/c2coc3ccccc3c2=O)ccc2ccccc21,MIC,Pseudomonas aeruginosa [1],> 128 µM
same,inhibition,[2],1.21%
C[n+]1c(/C=C/c2c[nH]c3cc(F)ccc23)ccc2ccccc21,inhibition at 1.25 µM,Pseudomonas aeruginosa [9],~21%
same,MIC,Pseudomonas aeruginosa [1],> 128 µM
same,inhibition,[2],9.14%
C[n+]1c(/C=C/c2ccc3nc[nH]c3c2)ccc2ccccc21,MIC,Pseudomonas aeruginosa [1],> 128 µM
same,inhibition,[2],1.69%
C[n+]1c(/C=C/c2ccc3nc[nH]c3c2)sc2ccccc21,MIC,Pseudomonas aeruginosa [1],> 128 µM
same,inhibition,[2],3.2%
C[n+]1c(/C=C/c2cc(=O)c(O)co2)ccc2ccccc21,MIC,Pseudomonas aeruginosa [1],> 128 µM
same,inhibition,[2],0.45%
C[n+]1c(/C=C/c2ccc3ocnc3c2)sc2ccccc21,MIC,Pseudomonas aeruginosa [1],> 128 µM
same,inhibition,[2],1.14%
C[n+]1c(/C=C/c2c[nH]c3cc(Br)ccc23)ccc2ccccc21,inhibition at 1.25 µM,Pseudomonas aeruginosa [9],~21%
same,MIC,Pseudomonas aeruginosa [1],> 128 µM
same,inhibition,[2],0.5%
C[n+]1c(/C=C/c2coc3ccccc3c2=O)sc2ccccc21,MIC,Pseudomonas aeruginosa [1],> 128 µM
same,inhibition,[2],7.3%
C[n+]1c(/C=C/c2cc3ccccc3[nH]2)ccc2ccccc21,MIC,Pseudomonas aeruginosa [1],> 128 µM
same,inhibition,[2],1.42%
C[n+]1c(/C=C/c2ccc3ccc(=O)oc3c2)ccc2ccccc21,MIC,Pseudomonas aeruginosa [1],> 128 µM
same,inhibition,[2],2.74%
C[n+]1c(/C=C/c2ccc3c(c2)CCO3)sc2ccccc21,MIC,Pseudomonas aeruginosa [1],> 128 µM
same,inhibition,[2],3.6%
C[n+]1c(/C=C/c2c[nH]c3ccc(Br)cc23)ccc2ccccc21,MIC,Pseudomonas aeruginosa [1],> 128 µM
same,inhibition,[2],2.52%
Cc1ccc2[nH]cc(/C=C/c3ccc4ccccc4[n+]3C)c2c1,inhibition at 1.25 µM,Pseudomonas aeruginosa [9],~21%
same,MIC,Pseudomonas aeruginosa [1],> 128 µM
same,inhibition,[2],17%
C[n+]1c(/C=C/c2c[nH]c3ccc(Cl)cc23)ccc2ccccc21,MIC,Pseudomonas aeruginosa [1],> 128 µM
same,inhibition,[2],4.53%
C[n+]1c(/C=C/c2cc(=O)c(O)co2)sc2ccccc21,MIC,Pseudomonas aeruginosa [1],> 128 µM
same,inhibition,[2],4.1%
C[n+]1c(/C=C/c2cccc3ocnc23)ccc2ccccc21,MIC,Pseudomonas aeruginosa [1],> 128 µM
same,inhibition,[2],2.91%
C[n+]1c(/C=C/c2cc3ccccc3[nH]2)sc2ccccc21,MIC,Pseudomonas aeruginosa [1],> 128 µM
same,inhibition,[2],2.23%
C[n+]1c(/C=C/c2c[nH]c3ccccc23)sc2ccccc21,inhibition at 1.25 µM,Pseudomonas aeruginosa [9],~21%
same,MIC,Pseudomonas aeruginosa [1],> 128 µM
same,inhibition,[2],20.9%
COc1ccc2[nH]cc(/C=C/c3ccc4ccccc4[n+]3C)c2c1,inhibition at 1.25 µM,Pseudomonas aeruginosa [9],~21%
same,MIC,Pseudomonas aeruginosa [1],> 128 µM
same,inhibition,[2],16.6%
C[n+]1c(/C=C/c2c[nH]c3cc(Cl)ccc23)ccc2ccccc21,MIC,Pseudomonas aeruginosa [1],> 128 µM
same,inhibition,[2],3.02%
CC[C@H]1OC(=O)[C@H](C)[C@@H](O[C@H]2C[C@@](C)(OC)[C@@H](O)[C@H](C)O2)[C@H](C)[C@@H](O[C@@H]2O[C@H](C)C[C@H](N(C)C)[C@H]2O)[C@](C)(O)C[C@@H](C)CN(C)[C@H](C)[C@@H](O)[C@]1(C)O [AZITHROMYCIN],inhibition at 10 µM,Pseudomonas aeruginosa [5],43.9%
Cc1ccc2c(/C=C/c3ccc4ccccc4[n+]3C)c[nH]c2c1,inhibition at 1.25 µM,Pseudomonas aeruginosa [9],~21%
same,MIC,Pseudomonas aeruginosa [1],> 128 µM
same,inhibition,[2],16.2%
C[n+]1c(/C=C/c2c[nH]c3ccc([N+](=O)[O-])cc23)ccc2ccccc21,MIC,Pseudomonas aeruginosa [1],> 128 µM
same,inhibition,[2],4.62%
